Measurements from ChEMBL document CHEMBL5137043, “trans, trans-2-C-Aryl-3,4-dihydroxypyrrolidines as potent and selective β-glucosidase inhibitors: Pharmacological chaperones for Gaucher disease” (Eur J Med Chem, 2022).

Experiments:
Homo sapiens = species: Homo sapiens; test: Inhibition of human lysosomal beta-glucosidase assessed as reduction of p-nitrophenol release using p-nitrophenyl-glycoside as substrate at 1000 uM by spectrophotometric analysis; type: subcellular; conditions: Lysosome
[1] = Inhibition of porcine kidney alpha-trehalase assessed as reduction of p-nitrophenol release using p-nitrophenyl-glycoside as substrate by spectrophotometric analysis; type: tissue-based, Sus scrofa
[2] = biological target: T1, Tissue alpha-L-fucosidase (Bos taurus) (UniProt Q2KIM0); test: Inhibition of bovine kidney alpha-L-fucosidase assessed as reduction of p-nitrophenol release using p-nitrophenyl-glycoside as substrate at 1000 uM by spectrophotometric analysis; type: tissue-based
T1 sequence (whole entry): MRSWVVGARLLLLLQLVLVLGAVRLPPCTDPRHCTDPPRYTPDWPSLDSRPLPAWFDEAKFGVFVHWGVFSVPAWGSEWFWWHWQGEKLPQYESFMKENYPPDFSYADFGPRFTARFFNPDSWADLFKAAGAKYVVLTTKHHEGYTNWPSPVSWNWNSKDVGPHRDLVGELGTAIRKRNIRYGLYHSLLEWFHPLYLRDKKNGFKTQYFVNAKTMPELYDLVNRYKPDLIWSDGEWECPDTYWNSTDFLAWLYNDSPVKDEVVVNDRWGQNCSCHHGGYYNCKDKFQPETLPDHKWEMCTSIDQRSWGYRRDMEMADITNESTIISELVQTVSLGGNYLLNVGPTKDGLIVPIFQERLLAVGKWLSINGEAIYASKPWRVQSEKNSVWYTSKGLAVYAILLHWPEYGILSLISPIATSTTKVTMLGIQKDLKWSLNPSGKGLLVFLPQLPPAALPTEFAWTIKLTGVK

[3] = biological target: T2, Alpha-mannosidase (Canavalia ensiformis) (UniProt C0HJB3); test: Inhibition of jack bean alpha-mannosidase assessed as reduction of p-nitrophenol release using p-nitrophenyl-glycoside as substrate at 1000 uM by spectrophotometric analysis
T2 sequence (whole entry): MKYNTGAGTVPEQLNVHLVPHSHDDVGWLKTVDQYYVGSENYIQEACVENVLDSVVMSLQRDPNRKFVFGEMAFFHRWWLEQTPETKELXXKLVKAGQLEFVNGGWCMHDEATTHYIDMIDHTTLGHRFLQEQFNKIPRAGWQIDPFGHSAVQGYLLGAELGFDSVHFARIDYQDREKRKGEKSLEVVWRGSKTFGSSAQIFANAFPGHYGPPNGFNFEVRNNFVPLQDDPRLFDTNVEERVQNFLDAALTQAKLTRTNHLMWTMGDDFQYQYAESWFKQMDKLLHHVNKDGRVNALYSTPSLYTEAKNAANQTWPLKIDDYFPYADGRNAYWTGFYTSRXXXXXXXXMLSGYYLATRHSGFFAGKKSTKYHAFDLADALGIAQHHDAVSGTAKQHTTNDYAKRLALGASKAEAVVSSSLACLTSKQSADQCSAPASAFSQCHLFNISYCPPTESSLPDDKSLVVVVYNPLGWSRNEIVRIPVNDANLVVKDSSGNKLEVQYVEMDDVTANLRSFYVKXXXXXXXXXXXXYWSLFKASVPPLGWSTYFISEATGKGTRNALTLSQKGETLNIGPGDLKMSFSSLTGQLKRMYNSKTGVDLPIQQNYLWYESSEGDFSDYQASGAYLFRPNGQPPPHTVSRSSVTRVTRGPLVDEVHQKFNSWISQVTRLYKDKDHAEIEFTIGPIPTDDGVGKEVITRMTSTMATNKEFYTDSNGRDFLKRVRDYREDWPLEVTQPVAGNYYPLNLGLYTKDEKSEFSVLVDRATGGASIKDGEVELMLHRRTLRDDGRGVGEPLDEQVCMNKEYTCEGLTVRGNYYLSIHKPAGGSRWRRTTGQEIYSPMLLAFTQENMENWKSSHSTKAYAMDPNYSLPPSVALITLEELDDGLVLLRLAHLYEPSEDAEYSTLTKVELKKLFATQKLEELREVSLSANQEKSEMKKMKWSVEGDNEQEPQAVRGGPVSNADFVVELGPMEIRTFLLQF

[4] = Inhibition of rice alpha-glucosidase assessed as reduction of p-nitrophenol release using p-nitrophenyl-glycoside as substrate by spectrophotometric analysis; parameters: species or system Oryza sativa
[5] = Inhibition of yeast alpha-glucosidase assessed as reduction of p-nitrophenol release using p-nitrophenyl-glycoside as substrate by spectrophotometric analysis; parameters: species or system Saccharomyces cerevisiae
Escherichia coli = test: Inhibition of Escherichia coli beta-glucuronidase assessed as reduction of p-nitrophenol release using p-nitrophenyl-glycoside as substrate at 1000 uM by spectrophotometric analysis
Penicillium decumbens = test: Inhibition of Penicillium decumbens alpha-L-rhamnosidase assessed as reduction of p-nitrophenol release using p-nitrophenyl-glycoside as substrate at 1000 uM by spectrophotometric analysis
Aspergillus niger = test: Inhibition of Aspergillus niger amyloglucosidase assessed as reduction of p-nitrophenol release using p-nitrophenyl-glycoside as substrate at 1000 uM by spectrophotometric analysis
Bos taurus [6] = species: Bos taurus; test: Inhibition of bovine liver beta-glucosidase assessed as reduction of p-nitrophenol release using p-nitrophenyl-glycoside as substrate at 1000 uM by spectrophotometric analysis
[7] = biological target: Alpha-galactosidase (Coffea arabica) (UniProt Q42656); test: Inhibition of coffee beans alpha-galactosidase assessed as reduction of p-nitrophenol release using p-nitrophenyl-glycoside as substrate at 1000 uM by spectrophotometric analysis
Sequence of Alpha-galactosidase (Coffea arabica) (Q42656 16-378 limits assumed): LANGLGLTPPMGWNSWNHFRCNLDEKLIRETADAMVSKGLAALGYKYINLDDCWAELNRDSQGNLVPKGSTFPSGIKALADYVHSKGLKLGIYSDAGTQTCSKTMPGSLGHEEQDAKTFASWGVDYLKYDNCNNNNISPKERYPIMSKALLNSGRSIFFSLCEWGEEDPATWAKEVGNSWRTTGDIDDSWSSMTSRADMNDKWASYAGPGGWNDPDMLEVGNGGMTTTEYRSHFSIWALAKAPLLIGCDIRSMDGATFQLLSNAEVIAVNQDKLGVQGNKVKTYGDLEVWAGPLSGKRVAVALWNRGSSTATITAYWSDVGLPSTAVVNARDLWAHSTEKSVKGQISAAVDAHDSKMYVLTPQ

Bos taurus [8] = species: Bos taurus; test: Inhibition of bovine liver beta-glucuronidase assessed as reduction of p-nitrophenol release using p-nitrophenyl-glycoside as substrate at 1000 uM by spectrophotometric analysis
Bos taurus [9] = species: Bos taurus; test: Inhibition of bovine liver beta-galactosidase assessed as reduction of p-nitrophenol release using p-nitrophenyl-glycoside as substrate at 1000 uM by spectrophotometric analysis
Helix pomatia = test: Inhibition of snail beta-mannosidase assessed as reduction of p-nitrophenol release using p-nitrophenyl-glycoside as substrate at 1000 uM by spectrophotometric analysis
Prunus dulcis = test: Inhibition of almond beta-glucosidase assessed as reduction of p-nitrophenol release using p-nitrophenyl-glycoside as substrate at 1000 uM by spectrophotometric analysis
[10] = Inhibition of almond beta-glucosidase assessed as reduction of p-nitrophenol release using p-nitrophenyl-glycoside as substrate by spectrophotometric analysis; parameters: species or system Prunus dulcis
[11] = Inhibition of Aspergillus niger amyloglucosidase assessed as reduction of p-nitrophenol release using p-nitrophenyl-glycoside as substrate by spectrophotometric analysis
[12] = Inhibition of human lysosomal beta-glucosidase assessed as reduction of p-nitrophenol release using p-nitrophenyl-glycoside as substrate by spectrophotometric analysis; type: subcellular, Lysosome
Sus scrofa = species: Sus scrofa; test: Inhibition of porcine kidney alpha-trehalase assessed as reduction of p-nitrophenol release using p-nitrophenyl-glycoside as substrate at 1000 uM by spectrophotometric analysis; type: tissue-based
[13] = Inhibition of Penicillium decumbens alpha-L-rhamnosidase assessed as reduction of p-nitrophenol release using p-nitrophenyl-glycoside as substrate by spectrophotometric analysis
[14] = biological target: Sucrase-isomaltase, intestinal (Rattus norvegicus, UniProt P23739); test: Inhibition of rat small intestinal sucrase assessed as reduction of p-nitrophenol release using p-nitrophenyl-glycoside as substrate by spectrophotometric analysis; type: tissue-based, Small intestine
Sequence of Sucrase-isomaltase, intestinal (P23739 1-1013 limits assumed): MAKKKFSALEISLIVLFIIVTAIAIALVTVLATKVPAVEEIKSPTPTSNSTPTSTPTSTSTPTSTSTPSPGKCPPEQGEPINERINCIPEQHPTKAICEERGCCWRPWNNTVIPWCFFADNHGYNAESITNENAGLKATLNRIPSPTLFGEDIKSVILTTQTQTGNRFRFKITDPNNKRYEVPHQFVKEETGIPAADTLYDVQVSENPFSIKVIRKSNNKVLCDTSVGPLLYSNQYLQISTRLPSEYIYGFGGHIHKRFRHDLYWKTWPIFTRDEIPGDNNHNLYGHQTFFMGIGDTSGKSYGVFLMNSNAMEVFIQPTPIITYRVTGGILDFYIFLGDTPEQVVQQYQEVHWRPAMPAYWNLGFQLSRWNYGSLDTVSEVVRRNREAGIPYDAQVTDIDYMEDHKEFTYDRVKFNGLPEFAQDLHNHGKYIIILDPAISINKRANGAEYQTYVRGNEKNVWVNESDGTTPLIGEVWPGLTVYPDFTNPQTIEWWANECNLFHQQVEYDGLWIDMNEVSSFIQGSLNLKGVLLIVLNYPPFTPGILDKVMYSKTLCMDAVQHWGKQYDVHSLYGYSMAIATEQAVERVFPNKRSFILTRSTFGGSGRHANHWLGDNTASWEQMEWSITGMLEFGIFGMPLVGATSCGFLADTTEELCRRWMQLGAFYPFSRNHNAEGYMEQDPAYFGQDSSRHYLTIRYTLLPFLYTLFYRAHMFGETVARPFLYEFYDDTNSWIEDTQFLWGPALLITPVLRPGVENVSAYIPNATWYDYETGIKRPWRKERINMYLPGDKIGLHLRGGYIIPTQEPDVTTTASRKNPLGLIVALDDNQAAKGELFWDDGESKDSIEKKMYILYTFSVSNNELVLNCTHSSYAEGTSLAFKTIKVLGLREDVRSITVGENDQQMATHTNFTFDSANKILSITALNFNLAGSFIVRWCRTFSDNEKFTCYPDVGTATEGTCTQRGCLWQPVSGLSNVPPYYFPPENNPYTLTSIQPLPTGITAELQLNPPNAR
Sequence of Sucrase-isomaltase, intestinal (P23739 1014-1841 limits assumed): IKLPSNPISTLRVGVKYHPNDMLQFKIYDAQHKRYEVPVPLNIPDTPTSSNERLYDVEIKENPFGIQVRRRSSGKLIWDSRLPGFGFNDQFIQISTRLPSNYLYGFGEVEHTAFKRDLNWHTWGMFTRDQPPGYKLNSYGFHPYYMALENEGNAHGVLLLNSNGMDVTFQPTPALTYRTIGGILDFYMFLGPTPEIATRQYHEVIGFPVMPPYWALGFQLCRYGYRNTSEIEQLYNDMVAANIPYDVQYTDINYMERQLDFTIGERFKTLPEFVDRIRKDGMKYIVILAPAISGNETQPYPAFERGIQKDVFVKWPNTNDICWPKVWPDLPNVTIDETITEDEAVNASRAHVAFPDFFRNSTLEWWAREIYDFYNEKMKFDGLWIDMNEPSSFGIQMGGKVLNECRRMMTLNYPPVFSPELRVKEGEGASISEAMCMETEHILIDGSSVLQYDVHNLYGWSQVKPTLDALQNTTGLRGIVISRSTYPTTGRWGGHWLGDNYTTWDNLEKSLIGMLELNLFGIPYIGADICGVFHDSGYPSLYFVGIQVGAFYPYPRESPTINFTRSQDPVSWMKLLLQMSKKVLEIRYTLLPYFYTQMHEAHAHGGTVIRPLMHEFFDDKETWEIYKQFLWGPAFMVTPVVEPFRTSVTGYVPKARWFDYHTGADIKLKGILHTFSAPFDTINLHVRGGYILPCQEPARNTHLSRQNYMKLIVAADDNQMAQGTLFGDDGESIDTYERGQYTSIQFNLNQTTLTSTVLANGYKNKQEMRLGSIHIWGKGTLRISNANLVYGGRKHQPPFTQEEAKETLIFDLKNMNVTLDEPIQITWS

[15] = Inhibition of bovine liver beta-galactosidase assessed as reduction of p-nitrophenol release using p-nitrophenyl-glycoside as substrate by spectrophotometric analysis; parameters: species or system Bos taurus
Saccharomyces cerevisiae = test: Inhibition of yeast alpha-glucosidase assessed as reduction of p-nitrophenol release using p-nitrophenyl-glycoside as substrate at 1000 uM by spectrophotometric analysis
Oryza sativa = test: Inhibition of rice alpha-glucosidase assessed as reduction of p-nitrophenol release using p-nitrophenyl-glycoside as substrate at 1000 uM by spectrophotometric analysis
[16] = biological target: Lysosomal alpha-glucosidase (Homo sapiens) (UniProt P10253); test: Inhibition of human lysosomal alpha-glucosidase assessed as reduction of p-nitrophenol release using p-nitrophenyl-glycoside as substrate at 1000 uM by spectrophotometric analysis; conditions: Lysosome
[17] = biological target: T3, Lysosomal acid glucosylceramidase (Homo sapiens, UniProt P04062); test: Inhibition of human GCase assessed as reduction of 4-methylumbelliferone liberation using 4-methylumbelliferyl-beta-glucopyranoside as substrate preincubated with enzyme for 10 mins followed by substrate addition by fluorescence spectrophotometry
T3 sequence (P04062 whole entry): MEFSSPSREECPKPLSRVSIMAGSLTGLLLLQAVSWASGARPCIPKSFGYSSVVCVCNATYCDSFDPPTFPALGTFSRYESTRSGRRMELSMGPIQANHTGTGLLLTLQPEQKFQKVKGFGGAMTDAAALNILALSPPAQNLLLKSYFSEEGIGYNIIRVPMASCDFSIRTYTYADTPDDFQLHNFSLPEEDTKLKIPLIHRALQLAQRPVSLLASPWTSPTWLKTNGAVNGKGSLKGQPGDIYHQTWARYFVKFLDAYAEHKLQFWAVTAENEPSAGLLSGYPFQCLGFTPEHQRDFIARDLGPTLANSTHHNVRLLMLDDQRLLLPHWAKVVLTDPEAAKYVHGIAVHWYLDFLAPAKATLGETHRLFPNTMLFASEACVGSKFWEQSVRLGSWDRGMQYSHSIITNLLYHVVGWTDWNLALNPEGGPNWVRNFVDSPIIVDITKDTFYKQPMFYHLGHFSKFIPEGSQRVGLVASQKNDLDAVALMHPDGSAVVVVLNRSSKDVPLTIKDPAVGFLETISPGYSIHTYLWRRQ

[18] = Inhibition of Escherichia coli beta-glucuronidase assessed as reduction of p-nitrophenol release using p-nitrophenyl-glycoside as substrate by spectrophotometric analysis
[19] = Inhibition of bovine liver beta-glucosidase assessed as reduction of p-nitrophenol release using p-nitrophenyl-glycoside as substrate by spectrophotometric analysis; type: tissue-based, Bos taurus
[20] = biological target: Lysosomal alpha-glucosidase (Rattus norvegicus) (UniProt Q6P7A9); test: Inhibition of rat small intestinal maltase assessed as reduction of D-glucose release using maltose as substrate at 1000 uM by colorimetric analysis; type: tissue-based; conditions: Small intestine
Sequence of Lysosomal alpha-glucosidase (Rattus norvegicus) (Q6P7A9 whole entry): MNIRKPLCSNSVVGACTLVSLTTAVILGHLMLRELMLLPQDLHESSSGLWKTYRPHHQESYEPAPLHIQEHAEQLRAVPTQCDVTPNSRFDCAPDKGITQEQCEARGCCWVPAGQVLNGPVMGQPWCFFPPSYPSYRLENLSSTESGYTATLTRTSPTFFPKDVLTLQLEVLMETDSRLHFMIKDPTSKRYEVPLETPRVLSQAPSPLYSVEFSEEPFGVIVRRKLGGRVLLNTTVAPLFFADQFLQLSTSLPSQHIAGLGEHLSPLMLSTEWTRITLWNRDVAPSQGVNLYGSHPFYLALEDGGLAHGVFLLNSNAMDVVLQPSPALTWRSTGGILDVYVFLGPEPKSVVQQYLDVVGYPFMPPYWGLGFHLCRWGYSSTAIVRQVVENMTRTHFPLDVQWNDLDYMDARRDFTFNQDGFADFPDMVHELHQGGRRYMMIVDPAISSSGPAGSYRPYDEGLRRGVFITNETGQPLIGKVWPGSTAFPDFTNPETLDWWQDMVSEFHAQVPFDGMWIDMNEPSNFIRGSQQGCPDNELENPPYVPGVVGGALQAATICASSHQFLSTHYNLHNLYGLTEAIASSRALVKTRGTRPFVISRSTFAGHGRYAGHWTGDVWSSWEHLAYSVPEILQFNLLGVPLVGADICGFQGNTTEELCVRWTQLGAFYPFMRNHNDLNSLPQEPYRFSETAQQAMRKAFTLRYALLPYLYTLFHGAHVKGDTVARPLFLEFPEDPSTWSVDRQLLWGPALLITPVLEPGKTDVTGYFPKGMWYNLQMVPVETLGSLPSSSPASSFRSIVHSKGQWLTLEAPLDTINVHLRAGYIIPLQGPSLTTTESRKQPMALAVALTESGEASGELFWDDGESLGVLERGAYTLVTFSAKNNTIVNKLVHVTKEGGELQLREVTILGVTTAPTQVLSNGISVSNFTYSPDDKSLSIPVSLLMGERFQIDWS

| Compound | IC50 [1] | inhibition [2] | inhibition [3] | IC50 [4] | IC50 [5] | inhibition (Escherichia coli) | inhibition (Penicillium decumbens) | inhibition (Aspergillus niger) | inhibition (Bos taurus [6]) | inhibition [7] | inhibition (Bos taurus [8]) | inhibition (Bos taurus [9]) | inhibition (Helix pomatia) | inhibition (Prunus dulcis) | IC50 [10] | IC50 [12] | inhibition (Sus scrofa) | IC50 [14] | IC50 [15] | inhibition (Saccharomyces cerevisiae) | further results |
| --- | --- | --- | --- | --- | --- | --- | --- | --- | --- | --- | --- | --- | --- | --- | --- | --- | --- | --- | --- | --- | --- |
| OC[C@@H]1NCC(O)C1O (single isomer, unassigned) | 161 µM | 13.3% | 0% | 1.9 µM | 163 µM | 8% | 1.3% | 25.6% | 4.6% | 3.9% | 6.3% | 8.3% | 0.5% | 32.6% |  |  |  |  |  |  | inhibition (Homo sapiens): 16.1% |
| OC[C@H]1NC[C@@H](O)[C@@H]1O | 11 µM | 9% |  | 87 µM | 2.5 µM | 5.3% | 13.5% |  | 7.9% | 4.1% | 6.3% | 11.4% | 13% |  | 967 µM | 340 µM |  |  |  |  | IC50 [11]: 355 µM |
| O[C@H]1[C@H](CCCc2ccccc2)NC[C@@H]1O |  | 0% | 11.5% |  |  | 42.7% |  | 0% | 35% | 0% | 0.3% |  | 5.2% | 48.8% |  | 9.5 µM | 0% | 178 µM | 665 µM | 30% | IC50 [13]: 131 µM; inhibition (Oryza sativa): 42.9%; inhibition [16]: 27.8% |
| CCCCN1C[C@H](CO)[C@@H](O)[C@H](O)C1 |  |  |  |  |  |  |  |  |  |  |  |  |  |  |  |  |  |  |  |  | IC50 [17]: 44 µM |
| O[C@@H]1[C@@H](O)CN[C@H]1c1ccc(-c2ccccc2)cc1 |  | 0% | 0% |  |  |  | 6.4% | 0% |  | 0.3% | 4.2% |  | 14.9% |  | 234 µM | 1.2 µM | 1.6% | 580 µM | 83 µM | 4.7% | IC50 [18]: 418 µM; IC50 [19]: 458 µM; inhibition [20]: 28.8%; inhibition (Oryza sativa): 10.3%; inhibition [16]: 15.6% |
